Test results: patent US4559323A, “A41030 Antibiotics” (Eli Lilly and Company, priority 1984, dated 1985)
≈ marks a conversion by molar mass, not a printed value. Where two headings read alike, the source gives them in different places.

Assays:
Bacteroides vulgatis [1] = experiment: Agar-dilution MIC (anaerobes); assay type: cell-based; settings: Table 14; Bacteroides vulgatis 1211
[2] = Electrometric titration (pKa); assay type: physicochemical; settings: electrometric titration in 66% dimethylformamide in water
[3] = tested on: Bacteroides melaninogenicus; experiment: Agar-dilution MIC (anaerobes); assay type: cell-based; settings: Table 14; Bacteroides melaninogenicus 2736
S. pyogenes [4] = experiment: Experimental bacterial infection in mice, subcutaneous ED50; assay type: in vivo; settings: two doses subcutaneously
Protocol: (§1) All of the A41030 factors tested have shown in vivo antimicrobial activity against experimental bacterial infections. When two doses of test compound were administered subcutaneously to mice in illustrative infections, the activity observed is measured as an ED50 value [effective dose in mg./kg. to protect fifty percent of the test animals: See Warren Wick, et al., J. Bacteriol. 81, 233-235 (1961)].

Staph. aureus = experiment: as above; assay type: in vivo; settings: two doses subcutaneously
Protocol: as §1

S. pneumoniae = experiment: as above; assay type: in vivo; settings: two doses subcutaneously
Protocol: as §1

Solubility in solvents = assay type: physicochemical; settings: solvents as named
Description: The seven antibiotic factors are recovered from the fermentation and are obtained as a mixture, the A41030 complex. It will be recognized that the ratio of the factors in the A41030 complex will vary, depending upon the fermentation conditions used. The individual factors […], and G are separated and isolated as individual compounds, as hereinafter described.

Clostridium difficile = assay type: cell-based; settings: Table 14; Clostridium difficile 2994
Peptococcus prevoti = experiment: Agar-dilution MIC (anaerobes); assay type: cell-based
Bacteroides corrodens [5] = experiment: Agar-dilution MIC (anaerobes); assay type: cell-based; settings: Table 12; 24-hour; B. corrodens 1874
Description: (§2) The A41030 antibiotics, factors A, B, and C, are active against a genus of anaerobic bacteria identified as Bacteroides sp., the 24-hour MIC values being determined by the agar-dilution method, and are set forth in Table 12, which follows.

Bacteroides vulgatis [6] = experiment: Agar-dilution MIC (anaerobes); assay type: cell-based; settings: Table 12; 24-hour; B. vulgatis 1563
Description: as §2

[7] = tested on: Peptostreptococcus intermedius; experiment: Agar-dilution MIC (anaerobes); assay type: cell-based
Bacteroides corrodens [8] = experiment: Agar-dilution MIC (anaerobes); assay type: cell-based; settings: Table 14; Bacteroides corrodens 1874
[9] = tested on: Peptostreptococcus anaerobius; experiment: Agar-dilution MIC (anaerobes); assay type: cell-based
Clostridium perfringens = assay type: cell-based; settings: Table 14; Clostridium perfringens 81
B. thetaiotaomicron = assay type: cell-based
Description: The agar-dilution procedure described by the International Collaborative study (ICS) group was used to determine the minimum inhibitory concentrations (MIC's).

S. pyogenes [10] = experiment: In vivo oral activity against S. pyogenes in mice
Salmonella typhi = experiment: Agar-dilution MIC; assay type: cell-based; settings: Table 17, 24 hours
Hemophilus influenzae = experiment: Agar-dilution MIC; assay type: cell-based; settings: Table 9

## NC1C(=O)NC2Cc3ccc(c(Cl)c3)Oc3cc4cc(c3O)Oc3ccc(cc3Cl)C(O)C3NC(=O)C(NC(=O)C4NC(=O)C(NC2=O)c2cc(O)cc(c2)Oc2cc1ccc2O)c1cc(Cl)c(O)c(c1)-c1c(O)cc(O)cc1C(C(=O)O)NC3=O (stereo not drawn) [A41030 factor A]
Bacteroides vulgatis [1]
  MIC: 32 µg/mL (≈ 25.9 µM)
[2]
  pKa, first titratable group: about 5.53
  pKa, second titratable group: ~7.60
  pKa, third titratable group: ~10.37
[3]
  MIC: 4 µg/mL (≈ 3.24 µM)
S. pyogenes [4]
  ED50: 2.8 mg/kg
Staph. aureus
  ED50: 1.4 mg/kg
S. pneumoniae
  ED50: 1.68 mg/kg
Solubility in solvents
  Solubility: soluble in alcohol-water mixtures, in dimethylsulfoxide, in dimethylformamide, in dimethylsulfoxide-water mixtures, in dimethylformamide-water mixtures, in dilute aqueous acid, and in dilute aqueous base
Clostridium difficile
  MIC: 32 µg/mL (≈ 25.9 µM)
Peptococcus prevoti; Table 14, Peptococcus prevoti 1281
  MIC: ≤ 0.25 µg/mL
Peptococcus prevoti; Table 15, Pc. prevoti 1281
  MIC: 0.5 µg/mL (≈ 0.405 µM)
Peptococcus prevoti; Table 15, Pc. prevoti 1293
  MIC: 1.0 µg/mL (≈ 0.811 µM)
Peptococcus prevoti; Table 15, Pc. prevoti 1407
  MIC: 1.0 µg/mL (≈ 0.811 µM)
Bacteroides corrodens [5]
  MIC: 32 µg/mL (≈ 25.9 µM)
Bacteroides vulgatis [6]
  MIC: 32 µg/mL (≈ 25.9 µM)
[7]; Table 14, Peptostreptococcus intermedius 1264
  MIC: 1.0 µg/mL (≈ 0.811 µM)
[7]; Table 15, Ps. intermedius 1264
  MIC: ≤ 0.03 µg/mL
[7]; Table 15, Ps. intermedius 1524
  MIC: 0.5 µg/mL (≈ 0.405 µM)
[7]; Table 15, Ps. intermedius 1624
  MIC: 1.0 µg/mL (≈ 0.811 µM)
Bacteroides corrodens [8]
  MIC: 64 µg/mL (≈ 51.9 µM)
[9]; Table 14, Peptostreptococcus anaerobius 1428
  MIC: ≤ 0.25 µg/mL
[9]; Table 15, Ps. anaerobius 8
  MIC: 0.5 µg/mL (≈ 0.405 µM)
[9]; Table 15, Ps. anaerobius 52
  MIC: 0.5 µg/mL (≈ 0.405 µM)
[9]; Table 15, Ps. anaerobius 59
  MIC: 0.5 µg/mL (≈ 0.405 µM)
[9]; Table 15, Ps. anaerobius 1418
  MIC: ≤ 0.03 µg/mL
[9]; Table 15, Ps. anaerobius 1428
  MIC: 0.5 µg/mL (≈ 0.405 µM)
[9]; Table 15, Ps. anaerobius 1451
  MIC: 0.5 µg/mL (≈ 0.405 µM)
[9]; Table 15, Ps. anaerobius 1477
  MIC: 0.5 µg/mL (≈ 0.405 µM)
Clostridium perfringens
  MIC: 0.5 µg/mL (≈ 0.405 µM)
B. thetaiotaomicron; Table 12, 24-hour, B. thetaiotaomicron 1438
  MIC: 64 µg/mL (≈ 51.9 µM)
B. thetaiotaomicron; Table 12, 24-hour, B. thetaiotaomicron 1900A
  MIC: 128 µg/mL (≈ 104 µM)
B. thetaiotaomicron; Table 14, Bacteroides thetalotaomicron 1438
  MIC: 64 µg/mL (≈ 51.9 µM)
S. pyogenes [10]
  in vivo oral activity: > 300 mg./kg.X2
Salmonella typhi; Salmonella typhi 1335
  MIC: > 128 µg/mL
Salmonella typhi; Salmonella typhi X514
  MIC: > 128 µg/mL
Hemophilus influenzae; strain 75-312
  MIC: 8 µg/mL (≈ 6.49 µM)
Hemophilus influenzae; strain 75-313
  MIC: 16 µg/mL (≈ 13 µM)
Hemophilus influenzae; strain 75-364
  MIC: 16 µg/mL (≈ 13 µM)
Hemophilus influenzae; strain 75-465
  MIC: 32 µg/mL (≈ 25.9 µM)
Hemophilus influenzae; strain 75-19300
  MIC: 16 µg/mL (≈ 13 µM)
Hemophilus influenzae; strain 75-90383
  MIC: 16 µg/mL (≈ 13 µM)
Hemophilus influenzae; strain 4842
  MIC: 8 µg/mL (≈ 6.49 µM)
Hemophilus influenzae; strain A. Hall
  MIC: 16 µg/mL (≈ 13 µM)
Hemophilus influenzae; strain Bruno
  MIC: 16 µg/mL (≈ 13 µM)
Hemophilus influenzae; strain G. Newton
  MIC: 32 µg/mL (≈ 25.9 µM)
Hemophilus influenzae; strain Howard
  MIC: 16 µg/mL (≈ 13 µM)
Hemophilus influenzae; strain Miller
  MIC: 16 µg/mL (≈ 13 µM)
Hemophilus influenzae; strain O. Steele
  MIC: 16 µg/mL (≈ 13 µM)
Hemophilus influenzae; strain P. Wylie
  MIC: 16 µg/mL (≈ 13 µM)
Hemophilus influenzae; strain R251
  MIC: 16 µg/mL (≈ 13 µM)
Hemophilus influenzae; strain R259
  MIC: 16 µg/mL (≈ 13 µM)
Hemophilus influenzae; strain R272
  MIC: 16 µg/mL (≈ 13 µM)
Hemophilus influenzae; strain R274
  MIC: 16 µg/mL (≈ 13 µM)
